Assays:
Assay in all cases: relative viability (nuclei count vs DMSO), 5 days (fraction); higher = more cells survive
[1] = compound: CN[C@@H]1C[C@H]2O[C@@](C)([C@@H]1OC)n1c3ccccc3c3c4c(c5c6ccccc6n2c5c31)C(=O)NC4 [Staurosporine] + O=C(CCCCCCC(=O)Nc1ccccc1)NO [Vorinostat] (partner 1 µM)
How it was run: (§1)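 Relative viability equals treated-well nuclei counts divided by vehicle-well nuclei counts. Counts came from 4× images of lung cancer cell lines grown in 1536-well plates for 5 days after pin-tool dosing on the day after seeding. Dosing used one drug alone or a fixed anchor-drug dose plus five library-drug doses (not always all listed) in √10 steps, and values are medians of duplicate plates.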

[2] = compound: CN[C@@H]1C[C@H]2O[C@@](C)([C@@H]1OC)n1c3ccccc3c3c4c(c5c6ccccc6n2c5c31)C(=O)NC4 [Staurosporine] + C[C@]1(O)C[C@@H](c2nc(-c3ccc4ccc(-c5ccccc5)nc4c3)c3c(N)nccn32)C1 [Linsitinib] (partner 1 µM)
How it was run: as §1

[3] = compound: O=c1[nH]cc(F)c(=O)[nH]1 [5-Fluorouracil] + C[C@]1(O)C[C@@H](c2nc(-c3ccc4ccc(-c5ccccc5)nc4c3)c3c(N)nccn32)C1 [Linsitinib] (partner 1 µM)
How it was run: as §1

[4] = compound: CN[C@@H]1C[C@H]2O[C@@](C)([C@@H]1OC)n1c3ccccc3c3c4c(c5c6ccccc6n2c5c31)C(=O)NC4 [Staurosporine] + CC(=O)c1c(C)c2cnc(Nc3ccc(N4CCNCC4)cn3)nc2n(C2CCCC2)c1=O [Palbociclib] (partner 0.5 µM)
How it was run: as §1

| Cell Line | relative viability ([1]; first compound 0.005 µM) | relative viability ([1]; first compound 0.01581 µM) | relative viability ([1]; first compound 0.05 µM) | relative viability ([1]; first compound 0.1581 µM) | relative viability ([1]; first compound 0.5 µM) | relative viability ([2]; first compound 0.005 µM) | relative viability ([2]; first compound 0.01581 µM) | relative viability ([2]; first compound 0.05 µM) | relative viability ([2]; first compound 0.1581 µM) | relative viability ([2]; first compound 0.5 µM) | relative viability ([3]; first compound 0.02 µM) | relative viability ([3]; first compound 0.2 µM) | relative viability ([3]; first compound 0.6325 µM) | relative viability ([3]; first compound 2 µM) | relative viability ([4]; first compound 0.005 µM) | relative viability ([4]; first compound 0.01581 µM) | relative viability ([4]; first compound 0.05 µM) | relative viability ([4]; first compound 0.1581 µM) | relative viability ([4]; first compound 0.5 µM) |
| --- | --- | --- | --- | --- | --- | --- | --- | --- | --- | --- | --- | --- | --- | --- | --- | --- | --- | --- | --- |
| LCLC-103H | 0.545 | 0.16 | 0.251 | 0.211 | 0.198 | 1.25 | 0.717 | 0.352 | 0.206 | 0.212 | 1.16 | 1.04 | 0.955 | 0.645 | 0.507 | 0.43 | 0.393 | 0.29 | 0.253 |
| HCC-78 | 0.475 | 0.377 | 0.388 | 0.367 | 0.279 | 0.613 | 0.457 | 0.363 | 0.295 | 0.268 | 0.398 | 0.528 | 0.258 | – | 0.502 | 0.469 | 0.462 | 0.472 | 0.464 |
| NCI-H1975 | 0.297 | 0.232 | 0.218 | 0.146 | 0.105 | 0.323 | 0.229 | – | 0.139 | 0.124 | 0.902 | 1.02 | 0.489 | 0.308 | 0.16 | 0.124 | 0.159 | 0.0883 | 0.0924 |

From the supplement of paper PMC10307832
